Data on five compounds can be found in ChEMBL document CHEMBL5726443, “Bicyclic sulfonamide compounds as sodium channel inhibitors” (2017).

The structures appear in SMILES notation.

The assay deals with Sodium channel protein type 9 subunit alpha (Homo sapiens, UniProt Q15858). Briefly: Compound effects were measured on a partially inactivated state of the sodium channel. Cells were clamped to a holding potential yielding 20 to 50% inactivation. To elicit sodium current, channels were activated by pulsing to ⿿10 mV for 20 msec. This voltage protocol was repeated at a rate of 0.1 Hz throughout the experiment.
Sequence of Sodium channel protein type 9 subunit alpha (Q15858 whole entry): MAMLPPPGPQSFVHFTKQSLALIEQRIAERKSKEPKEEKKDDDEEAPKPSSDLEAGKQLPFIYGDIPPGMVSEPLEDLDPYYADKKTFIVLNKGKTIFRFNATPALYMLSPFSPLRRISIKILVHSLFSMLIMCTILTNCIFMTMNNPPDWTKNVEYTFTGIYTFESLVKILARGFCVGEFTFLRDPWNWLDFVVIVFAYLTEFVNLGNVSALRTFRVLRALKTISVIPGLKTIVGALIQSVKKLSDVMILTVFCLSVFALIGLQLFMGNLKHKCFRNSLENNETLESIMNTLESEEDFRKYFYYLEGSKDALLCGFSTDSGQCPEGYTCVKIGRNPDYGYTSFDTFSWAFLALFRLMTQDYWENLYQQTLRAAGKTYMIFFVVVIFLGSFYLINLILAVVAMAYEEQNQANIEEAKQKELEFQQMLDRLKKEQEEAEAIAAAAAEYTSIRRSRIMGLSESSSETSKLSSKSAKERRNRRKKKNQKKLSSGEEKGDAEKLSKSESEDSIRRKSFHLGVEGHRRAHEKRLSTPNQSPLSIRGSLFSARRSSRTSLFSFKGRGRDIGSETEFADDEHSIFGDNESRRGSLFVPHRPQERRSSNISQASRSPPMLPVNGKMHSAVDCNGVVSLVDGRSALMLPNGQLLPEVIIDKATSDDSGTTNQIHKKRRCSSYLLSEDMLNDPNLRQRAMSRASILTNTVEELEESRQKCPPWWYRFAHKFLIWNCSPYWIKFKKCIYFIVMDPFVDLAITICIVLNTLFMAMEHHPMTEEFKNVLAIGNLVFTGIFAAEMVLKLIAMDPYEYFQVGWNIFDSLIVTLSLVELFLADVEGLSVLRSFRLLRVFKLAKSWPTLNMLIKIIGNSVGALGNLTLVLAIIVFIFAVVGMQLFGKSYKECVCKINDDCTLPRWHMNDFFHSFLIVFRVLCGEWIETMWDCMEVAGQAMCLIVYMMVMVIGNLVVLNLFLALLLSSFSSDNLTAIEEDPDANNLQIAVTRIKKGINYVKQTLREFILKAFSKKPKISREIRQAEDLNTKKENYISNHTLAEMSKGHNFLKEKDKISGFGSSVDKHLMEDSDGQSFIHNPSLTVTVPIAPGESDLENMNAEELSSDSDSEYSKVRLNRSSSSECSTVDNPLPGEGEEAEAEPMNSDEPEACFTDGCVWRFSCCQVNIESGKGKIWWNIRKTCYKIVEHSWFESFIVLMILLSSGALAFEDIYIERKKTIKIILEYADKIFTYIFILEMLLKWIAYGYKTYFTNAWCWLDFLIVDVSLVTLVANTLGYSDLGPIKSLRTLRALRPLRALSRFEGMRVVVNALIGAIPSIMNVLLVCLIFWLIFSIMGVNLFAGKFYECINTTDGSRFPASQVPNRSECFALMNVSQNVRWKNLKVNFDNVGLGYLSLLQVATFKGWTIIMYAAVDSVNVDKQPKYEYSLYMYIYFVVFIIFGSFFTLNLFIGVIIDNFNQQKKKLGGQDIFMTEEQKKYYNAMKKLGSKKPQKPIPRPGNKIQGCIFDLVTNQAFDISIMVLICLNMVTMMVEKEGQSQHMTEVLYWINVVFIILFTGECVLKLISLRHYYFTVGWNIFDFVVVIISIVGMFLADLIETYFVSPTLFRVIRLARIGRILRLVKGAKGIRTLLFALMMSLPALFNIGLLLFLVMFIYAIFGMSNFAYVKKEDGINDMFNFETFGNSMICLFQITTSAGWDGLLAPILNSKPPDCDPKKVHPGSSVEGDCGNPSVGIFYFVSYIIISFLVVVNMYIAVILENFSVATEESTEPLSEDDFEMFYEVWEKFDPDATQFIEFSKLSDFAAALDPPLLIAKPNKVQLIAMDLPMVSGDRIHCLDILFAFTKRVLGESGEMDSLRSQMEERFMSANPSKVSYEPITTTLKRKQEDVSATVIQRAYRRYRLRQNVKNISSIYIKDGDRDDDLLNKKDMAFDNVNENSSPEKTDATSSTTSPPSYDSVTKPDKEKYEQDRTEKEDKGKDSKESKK

In turn, `COc1cc(-c2ccc(F)c(C)n2)c(C)cc1-c1ncnc2cc(S(=O)(=O)Nc3ccon3)ccc12` came in with an IC50 of 445 nM.
For `COc1cc(-c2ccc(F)c(Cl)c2)c(C#N)cc1-c1nccc2cc(S(=O)(=O)Nc3nncs3)ccc12` the value was 9.2 nM.
`COc1cc(-c2ccc(Cl)c(F)c2)c(C#N)cc1-c1nccc2cc(S(=O)(=O)Nc3nncs3)ccc12` registered an IC50 of 18.6 nM.
Regarding `COc1cc(-c2cccc(Cl)c2)c(F)cc1-c1ncnc2cc(S(=O)(=O)Nc3ncc(F)cn3)ccc12`, 107 nM corresponded to half-maximal inhibition (IC50).
Next, `COc1cc(-c2cccc(C(F)(F)F)c2)c(C)cc1-c1nccc2cc(S(=O)(=O)Nc3ccon3)ccc12`: 60.9 nM.

For orientation: IC50 means the concentration that inhibits the measured activity by half. A low value points to inhibition by little substance.
